{"source": "patent US20100130603A1", "about": "“MEDICAMENT FOR PROPHYLACTIC AND THERAPEUTIC TREATMENT OF DERMATOSIS RESULTING FROM EXCESSIVELY ADVANCED KERATINIZATION” (KYOTO UNIVERSITY, priority 2007, published 2010)", "key": {"[1]": {"system": "Serca2 gene", "experiment": "Serca2 mRNA induction in normal human epidermal keratinocytes (NHEK), Northern blotting", "type": "cell-based", "details": "for strength of Serca2 gene inducing action: comparison among inducers", "procedure": "Normal human epidermal keratinocytes (NHEK) were cultured in a serum-free medium (KGM medium) from which only hydrocortisone was excluded. A test substance dissolved in dimethyl sulfoxide (DMSO) as a solvent was added to the medium and culture was continued, and amount of mRNA of Serca2 gene in the epidermal keratinocytes was quantified by Northern blotting after 3, 6, and 9 hours. […] RNA was extracted 0, 3, 6, 12, 18, 24, and 48 hours after the addition of WiN55,212-2 to the epidermal keratinocytes, and expression of Serca2 gene was observed by Northern blotting.\nTest substances including various kinds of vanilloid agonists were examined in the same manner as that of Example 1."}, "[2]": {"system": "skin samples of healthy persons", "experiment": "Pathological changes by HE staining in skin samples of healthy persons under organ culture", "type": "cell-based", "details": "healthy human skin organ culture, optimum concentration, fixed after 24 to 48 hours", "procedure": "Optimum concentrations of dihomo-γ-linolenoyldopamine, WIN55,212-2, DPTHF as a vanilloid antagonist, and DMSO (control) were each added to skin samples of healthy persons and kept under a state of organ culture in the same manner as in Example 3. The skin samples were fixed after 24 to 48 hours, and pathological changes were observed by HE staining."}, "[3]": {"system": "three-dimensionally cultured skin model of Darie's disease patients' keratinocytes", "experiment": "Darie's disease model skin by three-dimensional culture", "type": "cell-based, human", "details": "added to the medium; keratinocytes with fibroblasts or interstitial components; 5 to 11 days", "procedure": "In order to construct a model skin of Darie's disease which is readily reproducible and can be repetitively applied for assays, a […] model skin was constructed by three-dimensional culture of a combination of cultured epidermal keratinocytes and fibroblasts of Darie's disease patients, or three-dimensional culture of a combination of cultured epidermal keratinocytes Darie's disease patients and interstitial components. WIN55,212-2 or dihomo-γ-linolenoyldopamine was added to the medium of the above model skin to confirm the actions thereof. […] With the DMSO treatment as a control, individual keratinization and acantholysis remained, and pathological conditions corresponding to the pathological pictures of Darie's disease were observed."}, "[4]": {"system": "skin samples of Darie's disease patients", "experiment": "Pathological changes by HE staining in skin of Darie's disease patients transplanted to nude mice, applied 5 days", "type": "in vivo, human skin transplanted to nude mice", "details": "Darie's disease patient skin on nude mice, optimum concentration applied every day for 5 days", "source_text": "Skin samples of Darie's disease patients were collected under informed consent of the patients, and transplanted to nude mice, and after one week under acceptance of graft, optimum concentrations of dihomo-γ-linolenoyldopamine, WIN55,212-2, and DMSO (control) were each applied to the skin samples every day for 5 days. The skins where the application was made were fixed after biopsy, and pathological changes were observed by HE staining."}, "[5]": {"system": "skin samples of Darie's disease patients", "experiment": "Pathological examination of skin of Darie's disease patients transplanted to nude mice, applied 9 days", "type": "in vivo, human skin transplanted to nude mice", "details": "Darie's disease patient skin on nude mice, applied for 9 days in DMSO", "procedure": "Skin samples of Darie's disease patients with an area of 1 to 2 cm square were transplanted to nude mice, and acceptance of graft was confirmed after 7 days. Thereafter WIN55,212-2 or dihomo-γ-linolenoyldopamine was applied for 5 to 9 days using dimethyl sulfoxide (DMSO) as a solvent, and effectiveness of the drugs was determined on the basis of pathological examinations. This method is effective for successful determination of efficacy of a drug under a condition closest to the affected patient's skin. […] Where a solvent (DMSO) was applied as the control, dyskeratosis, parakeratosis, and blistering remained, the granular layer remained disappeared, and pathological pictures of Darie's disease were observed even after the transplantation. It is considered that the medicament of the present invention has sufficient effectiveness on inflammatory keratosis such as psoriasis vulgaris, as well as on Darie's disease, because potent therapeutic effect that achieves successful recover of even the formation of normal granular layer was observed when the cannabinoid agonist was applied."}, "[6]": {"system": "ATP2A protein", "experiment": "ATP2A protein localization by immunostaining in skins of healthy persons transplanted to nude mice", "type": "in vivo", "details": "healthy human skin on nude mice, optimum concentration applied every day for 5 days", "source_text": "Skins of healthy persons were transplanted to nude mice, and after one week under acceptance of graft, optimum concentrations of dihomo-γ-linolenoyldopamine, WIN55,212-2, DPTHF as a vanilloid antagonist, and DMSO (control) were each applied every day for 5 days. The skin samples where the application was made were fixed after biopsy, and localization of ATP2A protein was identified by immunostaining."}, "[7]": {"system": "ATP2A2 mRNA", "experiment": "ATP2A2 mRNA expression in epidermal keratinocytes of Darier's disease patients, Northern blotting", "type": "cell-based, human", "details": "keratinocyte cell lines of 3 Darier's disease patients, 6 hours after treatment, 10^−6 to 10^−9 mol", "procedure": "Epidermal keratinocytes were collected from skins of pathological lesions of 3 Darier's disease patients, and cultured to establish cell lines. The cells were treated with WIN55,212-2 or a vanilloid agonist (dihomo-γ-linolenoyldopamine or eicosa-11Z,14Z-dienoyldopamine), and after 6 hours, RNAs were extracted and the expression of ATP2A2 mRNA was observed by Northern blotting. […] When the epidermal keratinocytes of the other two Darie's disease patients were used, similar results were obtained."}, "[8]": {"system": "ATP2A protein", "experiment": "ATP2A protein localization by immunostaining in human skin under organ culture", "type": "cell-based", "details": "optimum concentration, fixed after 24 hours", "procedure": "Human skin under a state of organ culture was added with optimum concentration of dihomo-γ-linolenoyldopamine or DMSO (control), and after 24 hours later, the skin was fixed, and then localization of ATP2A protein, which is the causative protein of Darie's disease, was identified by immunostaining."}, "[9]": {"details": "vanilloid agonists, same manner as Example 1"}, "[10]": {"details": "synthetic cannabinoid agonists in DMSO, Northern blotting after 3, 6 and 9 hours"}}, "data": [{"smiles": "CCCCC/C=C\\C/C=C\\C/C=C\\C/C=C\\CCCCCC(=O)NCCc1ccc(O)c(O)c1", "note": "[docosatetra-7Z,10Z,13Z,16Z-enoyldopamine]", "values": [{"measurement": "induction of Serca2 gene (mRNA)", "setting": "[1]; [9]", "value": "induced the Serca2 gene"}]}, {"smiles": "Cc1c(C(=O)c2cccc3ccccc23)c2cccc3c2n1[C@H](CN1CCOCC1)CO3", "note": "[WIN55,212-2]", "values": [{"measurement": "pathological changes by HE staining", "setting": "[2]", "value": "remained in a state of physiological skin not distinguishable from healthy skins"}, {"measurement": "pathological pictures in three-dimensional model skin", "setting": "[3]", "value": "recovery of three-dimensional skin having quality similar to that of healthy skin was observed"}, {"measurement": "pathological changes by HE staining", "setting": "[4]", "value": "these pathological changes characteristic to Darie's disease disappeared"}, {"measurement": "pathological pictures (effectiveness by pathological examination)", "setting": "[5]", "value": "dyskeratosis, parakeratosis, and blistering were disappeared, and normal keratinization was observed with recovered granular layer"}, {"measurement": "induction of Serca2 gene (mRNA)", "setting": "[1]; [10]", "value": "induction of Serca2 gene was induced"}, {"measurement": "localization/expression of ATP2A protein by immunostaining", "setting": "[6]", "value": "excessively advanced expression in the basal layer was observed"}, {"measurement": "expression of ATP2A2 mRNA", "setting": "[7]", "value": "concentration-dependent promotion of expression of ATP2A2 was observed"}]}, {"smiles": "CC/C=C\\C/C=C\\C/C=C\\C/C=C\\C/C=C\\CCCC(=O)NCCc1ccc(O)c(O)c1", "note": "[eicosapentaenoyldopamine]", "values": [{"measurement": "induction of Serca2 gene (mRNA)", "setting": "[1]; [9]", "value": "induced the Serca2 gene"}]}, {"smiles": "CCCCC/C=C\\C/C=C\\C/C=C\\CCCCCCC(=O)NCCc1ccc(O)c(O)c1", "note": "[dihomo-γ-linolenoyldopamine]", "values": [{"measurement": "pathological changes by HE staining", "setting": "[2]", "value": "remained in a state of physiological skin not distinguishable from healthy skins"}, {"measurement": "localization/expression of ATP2A protein by immunostaining", "setting": "[8]", "value": "excessively advanced expression in the basal layer was observed"}, {"measurement": "pathological pictures in three-dimensional model skin", "setting": "[3]", "value": "recovery of three-dimensional skin having quality similar to that of healthy skin was observed"}, {"measurement": "pathological changes by HE staining", "setting": "[4]", "value": "these pathological changes characteristic to Darie's disease disappeared"}, {"measurement": "pathological pictures (effectiveness by pathological examination)", "setting": "[5]", "value": "dyskeratosis and blistering disappeared, and the granular layer also slightly recovered, but keratinization accompanied by parakeratosis slightly remained"}, {"measurement": "strength of Serca2 gene inducing action", "setting": "[1]; vanilloid agonists", "value": "potent inducing action"}, {"measurement": "induction of Serca2 gene (mRNA)", "setting": "[1]; [9]", "value": "induced the Serca2 gene"}, {"measurement": "localization/expression of ATP2A protein by immunostaining", "setting": "[6]", "value": "excessively advanced expression in the basal layer was observed"}, {"measurement": "expression of ATP2A2 mRNA", "setting": "[7]", "value": "concentration-dependent promotion of expression of ATP2A2 was observed"}]}, {"smiles": "CCCCC/C=C\\C/C=C\\CCCCCCCCCC(=O)NCCc1ccc(O)c(O)c1", "note": "[eicosa-11Z,14Z-dienoyldopamine]", "values": [{"measurement": "strength of Serca2 gene inducing action", "setting": "[1]; vanilloid agonists", "value": "potent inducing action"}, {"measurement": "induction of Serca2 gene (mRNA)", "setting": "[1]; [9]", "value": "induced the Serca2 gene"}, {"measurement": "expression of ATP2A2 mRNA", "setting": "[7]", "value": "concentration-dependent promotion of expression of ATP2A2 was observed"}]}, {"smiles": "CCCCC/C=C\\C/C=C\\C/C=C\\CCCCC(=O)NCCc1ccc(O)c(O)c1", "note": "[γ-linolenoyldopamine]", "values": [{"measurement": "strength of Serca2 gene inducing action", "setting": "[1]; vanilloid agonists", "value": "potent inducing action"}, {"measurement": "induction of Serca2 gene (mRNA)", "setting": "[1]; [9]", "value": "induced the Serca2 gene"}]}, {"smiles": "COc1ccc2c(c1)c(CC(=O)N1CCOCC1)c(C)n2C(=O)c1ccc(Cl)cc1", "note": "[BML-190]", "values": [{"measurement": "induction of Serca2 gene (mRNA)", "setting": "[1]; [10]", "value": "induction of Serca2 gene was induced"}]}, {"smiles": "NCCOB(c1ccccc1)c1ccccc1", "note": "[2-aminoethoxydiphenyl borate (2-APB), 2-aminoethoxydiphenyl borate]", "values": [{"measurement": "induction of Serca2 gene (mRNA)", "setting": "[1]; [9]", "value": "induced the Serca2 gene"}]}, {"smiles": "CCCCC/C=C\\C/C=C\\C/C=C\\C/C=C\\CCCC(=O)N[C@H](C)CO", "note": "[methanandamide]", "values": [{"measurement": "induction of Serca2 gene (mRNA)", "setting": "[1]; [10]", "value": "induction of Serca2 gene was induced"}]}, {"smiles": "CCCCCCCCCC(=O)O[C@@H]1[C@@H](C)[C@@]2(O)[C@@H](C=C(CO)C[C@@]3(O)C(=O)C(C)=C[C@@H]23)[C@@H]2C(C)(C)[C@]12OC(=O)CCCCCCCCC", "note": "[4-α-phorbol 12,13-didecanoate (4α-PDD), 4-α-phorbol 12,13-didecanoate]", "values": [{"measurement": "induction of Serca2 gene (mRNA)", "setting": "[1]; [9]", "value": "induced the Serca2 gene"}]}, {"smiles": "c1ccc(C2(c3ccccc3)CCCO2)cc1", "note": "[DPTHF, diphenyltetrahydrofuran]", "values": [{"measurement": "pathological changes by HE staining", "setting": "[2]", "value": "pathological images similar to those of Darie's disease such as individual keratinization and acantholysis were observed"}, {"measurement": "inducing action of vanilloid agonists on Serca2 gene expression when the vanilloid antagonist coexisted", "setting": "[1]; coexisting with vanilloid agonists (FIG. 7: dihomo-γ-linolenoyldopamine+DPTHF)", "value": "disappeared"}, {"measurement": "localization/expression of ATP2A protein by immunostaining", "setting": "[6]", "value": "decrease of expression of ATP2A2 was observed"}]}, {"smiles": "CC/C=C\\C/C=C\\C/C=C\\C/C=C\\C/C=C\\C/C=C\\CCC(=O)NCCc1ccc(O)c(O)c1", "note": "[docosahexaenoyldopamine]", "values": [{"measurement": "induction of Serca2 gene (mRNA)", "setting": "[1]; [9]", "value": "induced the Serca2 gene"}]}]}
